In patent US20260217735A1, “HETEROCYCLES AND USES THEREOF” (Kumquat Biosciences Inc., priority 2023, published 2026):

Experiments:
[1] = target: T1, KRAS G12D (Homo sapiens, UniProt P01116, G12D); assay: HTRF assay, KRAS G12D interaction with SOS1; assay type: biochemical; details: bins <500 nM / 500 nM to 1000 nM, read-out: Inhibition of KRAS G12D (IC50)
T1 construct: made in house; host or cells: E. coli, e.g. BL21 (DE3)
Source text: (§1) This assay can be also used to assess a selective inhibition or reduction of signaling output of a mutant Ras protein relative to a wildtype, or relative to a different mutant Ras protein. For example, the equilibrium interaction of wildtype KRAS or K-Ras mutant (e.g., wildtype or a mutant thereof) with SOS1 (e.g., hSOS1) can be assessed as a proxy or an indication for the ability of a subject compound to bind and inhibit Ras protein. The HTRF assay detects from (i) a fluorescence resonance energy transfer (FRET) donor (e.g., antiGST-Europium) that is bound to GST-tagged K-Ras mutant to (ii) a FRET acceptor (e.g., anti-6His-XL665) bound to a His-tagged hSOSL1.
(§2) The assay buffer can contain ~5 mM HEPES pH 7.4, ~150 mM NaCl, ~1 mM DTT, 0.05% BSA and 0.0025% (v/v) Igepal. A Ras working solution is prepared in an assay buffer containing typically a suitable amount of the protein construct (e.g., GST-tagged K-Ras mutant) and the FRET donor (e.g., antiGST-Eu(K) from Cisbio, France). A SOS1 working solution is prepared in an assay buffer containing suitable amount of the protein construct (e.g., His-hSOS1) and the FRET acceptor (e.g., anti-6His-XL665 from Cisbio, France). A suitable amount of the protein construct will depend on the range of activity or range of IC50 values being detected or under investigation. For detecting an IC50 within a range of 500 nM, the protein constructs of the same range of molarity can be utilized.
(§3) A fixed volume of DMSO with or without test compound is transferred into a 384-well plate. Ras working solution is added to all wells of the test plate. SOS1 working solution is added to all wells except for those that are subsequently filled with inhibitor control solution. Upon incubation for about 10 minutes or longer, the fluorescence is measured with a M1000Pro plate reader (Tecan) using HTRF detection (excitation 337 nm, emission 1: 620 nm, emission 2: 665 nm). Compounds are tested in duplicate at different concentrations (for example, 10 μM, 2.5 μM, 0.63 μM, 0.16 μM, 0.04 μM, 0.01 μM test compound). The ratiometric data (i.e., emission 2 divided by emission 1) is used to calculate IC50 values against Ras using GraphPad Prism (GraphPad software). Signaling output measured in terms of IC50 values can be obtained and a ratio of IC50 against one mutant relative to another mutant can be calculated. For instance, a selective reduction of K-Ras G12S signaling output can be evidenced by a ratio greater than one. In particular, a selective reduction of K-Ras G12S signaling relative to K-Ras WT signaling is evidenced if the ratio of IC50 (against K-Ras WT) to IC50 (against K-Ras G12S) is greater than 1.

[2] = target: T2, KRAS WT (Homo sapiens, UniProt P01116); assay: HTRF assay, wildtype KRAS interaction with SOS1; assay type: biochemical; details: bins <500 nM / 500 nM to 1000 nM, read-out: Inhibition of KRAS WT (IC50)
T2 construct: made in house; host or cells: E. coli, e.g. BL21 (DE3)
T2 sequence (P01116 1-188 isoform P01116-2): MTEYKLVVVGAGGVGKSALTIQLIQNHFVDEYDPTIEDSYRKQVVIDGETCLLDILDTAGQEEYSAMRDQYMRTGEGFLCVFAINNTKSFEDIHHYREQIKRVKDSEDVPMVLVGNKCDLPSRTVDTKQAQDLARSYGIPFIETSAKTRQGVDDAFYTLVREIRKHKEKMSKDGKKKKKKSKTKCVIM
Source text: as §1, §2, §3

[3] = target: T3, KRAS G12V (Homo sapiens, UniProt P01116, G12V); assay: HTRF assay, KRAS G12V interaction with SOS1; assay type: biochemical; details: bins <500 nM / 500 nM to 1000 nM, read-out: Inhibition of KRAS G12V (IC50)
T3 construct: made in house; host or cells: E. coli, e.g. BL21 (DE3)
T3 sequence (P01116 1-188 isoform P01116-2 G12V): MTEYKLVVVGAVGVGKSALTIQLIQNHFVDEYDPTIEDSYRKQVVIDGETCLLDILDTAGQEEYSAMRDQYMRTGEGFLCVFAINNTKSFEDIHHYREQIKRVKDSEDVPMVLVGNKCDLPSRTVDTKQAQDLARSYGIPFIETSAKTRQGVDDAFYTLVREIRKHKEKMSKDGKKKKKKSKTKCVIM
Source text: as §1, §2, §3

[4] = target: T4, KRAS G12S (Homo sapiens, UniProt P01116, G12S); assay: HTRF assay, KRAS G12S interaction with SOS1; assay type: biochemical; details: bins <500 nM / 500 nM to 1000 nM, read-out: Inhibition of KRAS G12S (IC50)
T4 construct: made in house; host or cells: E. coli, e.g. BL21 (DE3)
T4 sequence (P01116 1-188 isoform P01116-2 G12S): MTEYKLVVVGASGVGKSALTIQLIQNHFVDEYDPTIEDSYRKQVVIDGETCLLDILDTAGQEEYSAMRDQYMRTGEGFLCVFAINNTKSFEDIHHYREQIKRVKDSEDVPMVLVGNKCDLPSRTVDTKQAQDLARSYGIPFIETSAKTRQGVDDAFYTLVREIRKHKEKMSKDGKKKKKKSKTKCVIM
Source text: as §1, §2, §3

[5] = system: MiaPaca2 cells; assay: Ras cellular assay, growth of cells with K-Ras G12C mutation; assay type: cell-based; details: Homo sapiens, MIA PaCa-2; cell proliferation assay; bins ≤500 nM / >500 nM; read-out: Inhibition of MiaPaca2 Cells (IC50)
Procedure: For example, this assay can be also used to assess selective growth inhibition of a mutant Ras protein relative to a wildtype or different mutant Ras protein.
MIA PaCa-2 (ATCC CRL-1420) and NCI-H1792 (ATCC CRL-5895) cell lines comprise a G12C mutation and can be used to assess Ras cellular signaling in vitro, e.g., in response to an inhibitor compound of the present disclosure. […] MIA PaCa-2 culture medium is prepared with DMEM/Ham's F12 (e.g., with stable glutamine, 10% FCS, and 2.5% horse serum. NCI-H1792 culture medium is prepared with RPMI 1640 (e.g., with stable glutamine) and 10% FCS.
On a first day (e.g., Day 1), Softagar (Select Agar, Invitrogen, 3% in ddH2O autoclaved) is boiled and tempered at 48° C. Appropriate culture medium (i.e., medium) is tempered to 37° C. Agar (3%) is diluted 1:5 in medium (=0.6%) and plated into 96 well plates (Corning, #3904), then incubated at room temperature for agar solidification. A 3% agar is diluted to 0.25% in medium (1:12 dilution) and tempered at 42° C. Cells are trypsinized, counted, and tempered at 37° C. The cells (e.g., MIA PaCa-2 at about 125-150 cells, NCI-H1792 at about 1000 cells) are resuspended in […] 0.25% Agar and plated, followed by incubation at room temperature for agar solidification. The wells are overlaid with […] of the medium. Sister wells in a separate plate are plated for time zero determination. All plates are incubated overnight at 37° C. and 5% CO2.
On a second day (e.g., Day 2), time zero values are measured. A […] volume of Cell Titer 96 Aqueous Solution (Promega) is added to each well and incubated in the dark at 37° C. and 5% CO2. Absorption can be measured at 490 nm and reference wavelength 660 nm. DMSO-prediluted test compounds are added to wells of interest, e.g., with HP Dispenser, to one or more desired concentrations (e.g., a final DMSO concentration of 0.3%).
On a tenth day (e.g., Day 10), absorption by wells treated with the test compounds and control wells are measured with, for example, Cell Titer 96 AQueous and analyzed in comparison to the time zero measurements. The IC50 values are determined using the four parameter fit. The resulting IC50 value is a measurement of the ability of the test compound to reduce cell growth of Ras-driven cells (e.g., tumor cell lines) in vitro and/or in vivo.

T1 sequence (P01116 1-188 isoform P01116-2 G12D): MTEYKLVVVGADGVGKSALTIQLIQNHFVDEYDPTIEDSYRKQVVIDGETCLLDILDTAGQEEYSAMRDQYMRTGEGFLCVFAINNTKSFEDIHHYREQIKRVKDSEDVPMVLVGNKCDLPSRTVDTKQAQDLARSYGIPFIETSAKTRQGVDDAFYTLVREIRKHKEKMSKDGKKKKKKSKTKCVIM

| IC50 [1] | IC50 [2] | IC50 [3] | IC50 [4] | IC50 [5] | SMILES |
| --- | --- | --- | --- | --- | --- |
| < 500 nM | < 500 nM | < 500 nM | < 500 nM | ≤ 500 nM | CN(c1nc(OC[C@@]23CCCN2C[C@H](F)C3)nc2c(F)c(-c3ccc(F)c4sc(N)c(C#N)c34)c(Cl)cc12)[C@H]1CCN(C(=O)n2ccnc2)C1 [Compound 218, 4-(4-(((S)-1-(1H-imidazole-1-carbonyl)pyrrolidin-3-yl)(methyl)amino)-6-chloro-8-fluoro-2-(((2R,7aS)-2-fluorotetrahydro-1H-pyrrolizin-7a(5H)-yl)methoxy)quinazolin-7-yl)-2-amino-7-fluorobenzo[b]thiophene-3-carbonitrile] |
| < 500 nM | < 500 nM | < 500 nM | < 500 nM | ≤ 500 nM | C[C@@H]1[C@H](N(C)c2nc(OC[C@@]34CCCN3C[C@H](F)C4)nc3c(F)c(-c4ccc(F)c5sc(N)c(C#N)c45)c(C(F)(F)F)cc23)CCN1C(=O)n1ccnc1 [Compound 200, 4-(4-(((2R,3R)-1-(1H-imidazole-1-carbonyl)-2-methylpyrrolidin-3-yl)(methyl)amino)-8-fluoro-2-(((2R,7aS)-2-fluorotetrahydro-1H-pyrrolizin-7a(5H)-yl)methoxy)-6-(trifluoromethyl)quinazolin-7-yl)-2-amino-7-fluorobenzo[b]thiophene-3-carbonitrile] |
| < 500 nM | < 500 nM | < 500 nM | < 500 nM | ≤ 500 nM | Cc1ncn(C(=O)N2CC3CCN(c4nc(OC[C@@]56CCCN5C[C@H](F)C6)nc5c(F)c(-c6ccc(F)c7sc(N)c(C#N)c67)c(Cl)cc45)C3C2)c1C (stereo partly drawn) [Compound 140, 2-amino-4-(6-chloro-4-(5-(4,5-dimethyl-1H-imidazole-1-carbonyl)hexahydropyrrolo[3,4-b]pyrrol-1(2H)-yl)-8-fluoro-2-(((2R,7aS)-2-fluorotetrahydro-1H-pyrrolizin-7a(5H)-yl)methoxy)quinazolin-7-yl)-7-fluorobenzo[b]thiophene-3-carbonitrile] |
| < 500 nM | < 500 nM | < 500 nM | < 500 nM | ≤ 500 nM | CCN(c1nc(OC[C@@]23CCCN2C[C@H](F)C3)nc2c(F)c(-c3ccc(F)c4sc(N)c(C#N)c34)c(Cl)cc12)[C@@H]1CCN(C(=O)n2cc(C)nc2Cl)[C@@H]1C [Compound 137, 2-amino-4-(6-chloro-4-(((2R,3R)-1-(2-chloro-4-methyl-1H-imidazole-1-carbonyl)-2-methylpyrrolidin-3-yl)(ethyl)amino)-8-fluoro-2-(((2R,7aS)-2-fluorotetrahydro-1H-pyrrolizin-7a(5H)-yl)methoxy)quinazolin-7-yl)-7-fluorobenzo[b]thiophene-3-carbonitrile] |
| < 500 nM | < 500 nM | < 500 nM | < 500 nM | ≤ 500 nM | CCN(c1nc(OC[C@@]23CCCN2C[C@H](F)C3)nc2c(F)c(-c3ccc(F)c4sc(N)c(C#N)c34)c(Cl)cc12)[C@@H]1CCN(C(=O)n2cc(Cl)nc2C)[C@@H]1C [Compound 130, 2-amino-4-(6-chloro-4-(((2R,3R)-1-(4-chloro-2-methyl-1H-imidazole-1-carbonyl)-2-methylpyrrolidin-3-yl)(ethyl)amino)-8-fluoro-2-(((2R,7aS)-2-fluorotetrahydro-1H-pyrrolizin-7a(5H)-yl)methoxy)quinazolin-7-yl)-7-fluorobenzo[b]thiophene-3-carbonitrile] |
| < 500 nM | < 500 nM | < 500 nM | < 500 nM | ≤ 500 nM | CC[C@@H]1[C@H](N(C)c2nc(OC[C@@]34CCCN3C[C@H](F)C4)nc3c(F)c(-c4ccc(F)c5sc(N)c(C#N)c45)c(Cl)cc23)CCN1C(=O)n1ccnc1 [Compound 198, 2-amino-4-(6-chloro-4-(((2R,3R)-2-ethyl-1-(1H-imidazole-1-carbonyl)pyrrolidin-3-yl)(methyl)amino)-8-fluoro-2-(((2R,7aS)-2-fluorotetrahydro-1H-pyrrolizin-7a(5H)-yl)methoxy)quinazolin-7-yl)-7-fluorobenzo[b]thiophene-3-carbonitrile] |
| < 500 nM | – | – | – | ≤ 500 nM | CC1CC(N(C)c2nc(OC[C@@]34CCCN3C[C@H](F)C4)nc3c(F)c(-c4ccc(F)c5sc(N)c(C#N)c45)c(Cl)cc23)CCN1C(=O)n1ccnc1 (stereo partly drawn) [Compound 209, 4-(4-((1-(1H-imidazole-1-carbonyl)-2-methylpiperidin-4-yl)(methyl)amino)-6-chloro-8-fluoro-2-(((2R,7aS)-2-fluorotetrahydro-1H-pyrrolizin-7a(5H)-yl)methoxy)quinazolin-7-yl)-2-amino-7-fluorobenzo[b]thiophene-3-carbonitrile] |
| – | – | – | – | ≤ 500 nM | CN(c1nc(OC[C@@]23CCCN2C[C@H](F)C3)nc2c(F)c(-c3ccc(F)c4sc(N)c(C#N)c34)c(Cl)cc12)C1CN(C(=O)n2ccnc2)CC1F (single isomer, unassigned) [Compound 189] |
| – | – | – | – | ≤ 500 nM | CC1CC(N(C)c2nc(OC[C@@]34CCCN3C[C@H](F)C4)nc3c(F)c(-c4ccc(F)c5sc(N)c(C#N)c45)c(Cl)cc23)CN1C(=O)n1cnc(F)n1 (mixture of isomers) [Compound 150, 2-amino-4-(6-chloro-8-fluoro-4-((1-(3-fluoro-1H-1,2,4-triazole-1-carbonyl)-5-methylpyrrolidin-3-yl)(methyl)amino)-2-(((2R,7aS)-2-fluorotetrahydro-1H-pyrrolizin-7a(5H)-yl)methoxy)quinazolin-7-yl)-7-fluorobenzo[b]thiophene-3-carbonitrile] |
| – | – | – | – | ≤ 500 nM | CCN(c1nc(OCC23CCCN2C(COc2cc(C(F)(F)F)ncn2)CC3)nc2c(F)c(-c3ccc(F)c4sc(N)c(C#N)c34)c(Cl)cc12)[C@@H]1CCN(C(=O)n2cc(C)nc2C)[C@@H]1C (single isomer, unassigned) [Compound 217] |
